From US20230104800A1, “COMBINATION THERAPIES AND BIOMARKERS FOR TREATING CANCER” (priority 2020, published 2023) come the findings set out here.

For this test, the system named is SHEP-MYCN-ER cells. Description: FUCCI high-content live-cell imaging of cell cycle-related cell-killing activity. Type of test: cell-based, Human. The conditions noted are these: neuroblastoma SHEP-MYCN-ER cells with 200 nM 4-OHT (high MYCN), PC-002: 10 nM YM155, CHOP: 2 μM cyclophosphamide, 0.2 μM Doxorubicin, 8 nM vincristine, imaged every 20 min for 72 h.

Procedure: Cultures were incubated at 37° C. in 5% CO2.
Mix each FUCCI Premo™ reagent (Thermo fisher, P36237) by inversion to ensure a homogenous solution. Add the mixed reagent to the SHEP-MYCN-ER cells in complete cell medium and mix gently. Return the cells to the culture incubator for over 16 hour.
High-content live-cell imaging analysis. After transfection, SHEP-MYCN-ER cells were incubated in complete cell medium with concentration indicated of different drugs (PC-002: 10 nM YM155, CHOP: 2 μM cyclophosphamide; 0.2 μM Doxorubicin; 8 nM vincristine). Cells were grown in Array Scan™ Live Cell Module and imaged every 20 min for 72 h under controlled growth conditions (CellInsight™ CX5 High-Content Screening (HSC) Platform, Thermo Fisher; Array Scan™ Live Cell Module, Thermo Fisher).
In the G1 phase of the cell cycle, geminin is broken down and only Cdtl tagged with RFP may be visualized, thus identifying cells in the G1 phase with red fluorescent nuclei. In the S, G2, and M phases, however, Cdt1 is degraded and only geminin tagged with GFP remains, thus identifying cells in these phases with green fluorescent nuclei. During the G1/S transition, both proteins are present in the cells, allowing GFP and RFP fluorescence to be observed—when green and red images are overlaid, the cells appear with yellow (orange) fluorescent nuclei. The dynamic color change from red-to-yellow, yellow-to-green or green-to-red represents the progression through cell cycle (live). The cell dead without color change represents the sensitivity to the drug (death).

For the substance “1-(2-Methoxyethyl)-2-methyl-4,9-dioxo-3-(pyrazin-2-ylmethyl)-4,9-dihydro-1H-naphtho[2,3-d] imidazolium bromide [YM155]”, under “FIG. 6A”, the “cancer cell-killing activity in the G1 phase of the cell cycle (dead vs live cells)” value is “not significantly”. The “cancer cell-killing activity in the S/G2 phase of the cell cycle (dead vs live cells)” value (FIG. 6B) was “predominantly”. Besides, the “cancer cell-killing activity in the M phase of the cell cycle (dead vs live cells)” value (FIG. 6C) is given as “not significantly”.
